In brackets after ≈: the same amount, converted by molar mass.
Key:
[1] = test system: Staphylococcus aureus A798; test: Bacterial growth minimal inhibitory concentration (microdilution, cation-adjusted Mueller-Hinton Broth); type: cell-based; conditions: multiply-resistant strain, in particular quinolone resistant, read-out: MIC for S. aureus A798
Description: (§1) Bacterial Growth Minimal Inhibitory Concentrations:
(§2) Minimal inhibitory concentrations (MICs; mg/l) were determined in cation-adjusted Mueller-Hinton Broth by a microdilution method following the description given in “Methods for Dilution Antimicrobial Susceptibility Tests for Bacteria that Grow Aerobically”, Approved standard, 7th ed., Clinical and Laboratory Standards Institute (CLSI) Document M7-A7, Wayne, Pa., USA, 2006.
(§3) All Example compounds were tested against several Gram positive and Gram negative bacteria. Staphylococcus aureus A798 and Acinetobacter baumanii T6474 are multiply-resistant strains, in particular quinolone resistant.

[2] = test system: Acinetobacter baumanii T6474; test: as above; type: cell-based; conditions: Acinetobacter baumannii, multiply-resistant strain, in particular quinolone resistant
Description: as §1, §2, §3

Structure (SMILES)	MIC [1] [µg/mL]	MIC [2] [µg/mL]
O=C1COc2ccc(N3C[C@H](CNC4CCN(c5nc6c(cc5F)c(=O)c(C(=O)O)cn6C5CC5)C4)OC3=O)nc2N1 (mixture of isomers) [Example 21, 1-cyclopropyl-6-fluoro-4-oxo-7-((RS)-3-{[(S)-2-oxo-3-(3-oxo-3,4-dihydro-2H-pyrido[3,2-b][1,4]oxazin-6-yl)-oxazolidin-5-ylmethyl]-amino}-pyrrolidin-1-yl)-1,4-dihydro-[1,8]naphthyridine-3-carboxylic acid]	0.125	0.25
O=C(O)c1cn(C2CC2)c2cc(N3CCNCC3)c(F)cc2c1=O [Cipro, ciprofloxacin, reference compound]	> 32	> 32
O=C1CSc2ccc(N3C[C@@H](CN4CCN(c5cc6c(cc5F)c(=O)c(C(=O)O)cn6C5CC5)CC4)OC3=O)cc2N1 [Example 1, 1-cyclopropyl-6-fluoro-4-oxo-7-{4-[(R)-2-oxo-3-(3-oxo-3,4-dihydro-2H-benzo[1,4]thiazin-6-yl)-oxazolidin-5-ylmethyl]-piperazin-1-yl}-1,4-dihydro-quinoline-3-carboxylic acid]	≤ 0.016	0.125 (≈ 0.211 µM)
O=C1CSc2ccc(N3C[C@@H](CNC4CN(c5nc6c(cc5F)c(=O)c(C(=O)O)cn6C5CC5)C4)OC3=O)cc2N1 [Example 2, 1-cyclopropyl-6-fluoro-4-oxo-7-(3-{[(R)-2-oxo-3-(3-oxo-3,4-dihydro-2H-benzo[1,4]thiazin-6-yl)-oxazolidin-5-ylmethyl]-amino}-azetidin-1-yl)-1,4-dihydro-[1,8]naphthyridine-3-carboxylic acid]	≤ 0.016	0.125 (≈ 0.215 µM)
O=C1CSc2ccc(N3C[C@@H](CN4CCN(c5cc6c(cc5F)c(=O)c(C(=O)O)cn6C5CC5)CC4)OC3=O)nc2N1 [Example 3, 1-cyclopropyl-6-fluoro-4-oxo-7-{4-[(R)-2-oxo-3-(3-oxo-3,4-dihydro-2H-pyrido[3,2-b][1,4]thiazin-6-yl)-oxazolidin-5-ylmethyl]-piperazin-1-yl}-1,4-dihydro-quinoline-3-carboxylic acid]	≤ 0.016	0.063 (≈ 0.106 µM)
O=C1CSc2ccc(N3C[C@@H](CN4CCN(c5nc6c(cc5F)c(=O)c(C(=O)O)cn6C5CC5)CC4)OC3=O)cc2N1 [Example 4, 1-cyclopropyl-6-fluoro-4-oxo-7-{4-[(R)-2-oxo-3-(3-oxo-3,4-dihydro-2H-benzo[1,4]thiazin-6-yl)-oxazolidin-5-ylmethyl]-piperazin-1-yl}-1,4-dihydro-[1,8]naphthyridine-3-carboxylic acid]	≤ 0.016	0.125 (≈ 0.21 µM)
O=C1CSc2ccc(N3C[C@@H](CNC4CN(c5nc6c(cc5F)c(=O)ccn6C5CC5)C4)OC3=O)cc2N1 [Example 5, 6-((R)-5-{[1-(8-cyclopropyl-3-fluoro-5-oxo-5,8-dihydro-[1,8]naphthyridin-2-yl)-azetidin-3-ylamino]-methyl}-2-oxo-oxazolidin-3-yl)-4H-benzo[1,4]thiazin-3-one]	≤ 0.016	1 (≈ 1.86 µM)
O=C1COc2ccc(N3C[C@@H](CNC4CN(c5nc6c(cc5F)c(=O)c(C(=O)O)cn6C5CC5)C4)OC3=O)nc2N1 [Example 6, 1-cyclopropyl-6-fluoro-4-oxo-7-(3-{[(R)-2-oxo-3-(3-oxo-3,4-dihydro-2H-pyrido[3,2-b][1,4]oxazin-6-yl)-oxazolidin-5-ylmethyl]-amino}-azetidin-1-yl)-1,4-dihydro-[1,8]naphthyridine-3-carboxylic acid]	≤ 0.016	0.031 (≈ 0.0548 µM)
COc1c(N2CC(NC[C@@H]3CN(c4ccc5c(c4)NC(=O)CS5)C(=O)O3)C2)ccc2c(=O)c(C(=O)O)cn(C3CC3)c12 [Example 7, 1-cyclopropyl-8-methoxy-4-oxo-7-(3-{[(R)-2-oxo-3-(3-oxo-3,4-dihydro-2H-benzo[1,4]thiazin-6-yl)-oxazolidin-5-ylmethyl]-amino}-azetidin-1-yl)-1,4-dihydro-quinoline-3-carboxylic acid]	0.063 (≈ 0.106 µM)	0.25 (≈ 0.423 µM)
COc1c(N2CC(NC[C@@H]3CN(c4ccc5c(n4)NC(=O)CO5)C(=O)O3)C2)ccc2c(=O)c(C(=O)O)cn(C3CC3)c12 [Example 8, 1-cyclopropyl-8-methoxy-4-oxo-7-(3-{[(R)-2-oxo-3-(3-oxo-3,4-dihydro-2H-pyrido[3,2-b][1,4]oxazin-6-yl)-oxazolidin-5-ylmethyl]-amino}-azetidin-1-yl)-1,4-dihydro-quinoline-3-carboxylic acid]	0.063 (≈ 0.109 µM)	0.25 (≈ 0.434 µM)
CCn1cc(C(=O)O)c(=O)c2ccc(N3CC(NC[C@@H]4CN(c5ccc6c(n5)NC(=O)CO6)C(=O)O4)C3)nc21 [Example 9, 1-ethyl-4-oxo-7-(3-{[(R)-2-oxo-3-(3-oxo-3,4-dihydro-2H-pyrido[3,2-b][1,4]oxazin-6-yl)-oxazolidin-5-ylmethyl]-amino}-azetidin-1-yl)-1,4-dihydro-[1,8]naphthyridine-3-carboxylic acid]	0.063 (≈ 0.118 µM)	0.06 (≈ 0.112 µM)
O=C1CSc2ccc(N3C[C@@H](CNC4CN(c5ccc6c(=O)c(C(=O)O)cn(C7CC7)c6n5)C4)OC3=O)cc2N1 [Example 10, 1-cyclopropyl-4-oxo-7-(3-{[(R)-2-oxo-3-(3-oxo-3,4-dihydro-2H-benzo[1,4]thiazin-6-yl)-oxazolidin-5-ylmethyl]-amino}-azetidin-1-yl)-1,4-dihydro-[1,8]naphthyridine-3-carboxylic acid]	0.063 (≈ 0.112 µM)	0.25 (≈ 0.444 µM)
Cn1cc(C(=O)O)c(=O)c2ccc(N3CC(NC[C@@H]4CN(c5ccc6c(n5)NC(=O)CO6)C(=O)O4)C3)nc21 [Example 11, 1-methyl-4-oxo-7-(3-{[(R)-2-oxo-3-(3-oxo-3,4-dihydro-2H-pyrido[3,2-b][1,4]oxazin-6-yl)-oxazolidin-5-ylmethyl]-amino}-azetidin-1-yl)-1,4-dihydro-[1,8]naphthyridine-3-carboxylic acid]	0.063 (≈ 0.121 µM)	0.063 (≈ 0.121 µM)
Cn1cc(C(=O)O)c(=O)c2cc(F)c(N3CC(NC[C@@H]4CN(c5ccc6c(n5)NC(=O)CO6)C(=O)O4)C3)nc21 [Example 12, 6-fluoro-1-methyl-4-oxo-7-(3-{[(R)-2-oxo-3-(3-oxo-3,4-dihydro-2H-pyrido[3,2-b][1,4]oxazin-6-yl)-oxazolidin-5-ylmethyl]-amino}-azetidin-1-yl)-1,4-dihydro-[1,8]naphthyridine-3-carboxylic acid]	≤ 0.016	≤ 0.016
O=C1COc2ccc(N3C[C@@H](CNC4CN(c5nc6c(cc5F)c(=O)c(C(=O)O)cn6Cc5ccccc5)C4)OC3=O)nc2N1 [Example 13, 1-benzyl-6-fluoro-4-oxo-7-(3-{[(R)-2-oxo-3-(3-oxo-3,4-dihydro-2H-pyrido[3,2-b][1,4]oxazin-6-yl)-oxazolidin-5-ylmethyl]-amino}-azetidin-1-yl)-1,4-dihydro-[1,8]naphthyridine-3-carboxylic acid]	≤ 0.016	1 (≈ 1.62 µM)
O=C1COc2ccc(N3C[C@@H](CNC4CN(c5ccc6c(=O)c(C(=O)O)cn(C7CC7)c6n5)C4)OC3=O)nc2N1 [Example 14, 1-cyclopropyl-4-oxo-7-(3-{[(R)-2-oxo-3-(3-oxo-3,4-dihydro-2H-pyrido[3,2-b][1,4]oxazin-6-yl)-oxazolidin-5-ylmethyl]-amino}-azetidin-1-yl)-1,4-dihydro-[1,8]naphthyridine-3-carboxylic acid]	0.031 (≈ 0.0566 µM)	0.06 (≈ 0.11 µM)
O=C1COc2ccc(N3C[C@@H](CNC4CN(c5nc6c(cc5F)c(=O)c(C(=O)O)cn6CCO)C4)OC3=O)nc2N1 [Example 15, 6-fluoro-1-(2-hydroxy-ethyl)-4-oxo-7-(3-{[(R)-2-oxo-3-(3-oxo-3,4-dihydro-2H-pyrido[3,2-b][1,4]oxazin-6-yl)-oxazolidin-5-ylmethyl]-amino}-azetidin-1-yl)-1,4-dihydro-[1,8]naphthyridine-3-carboxylic acid]	0.25 (≈ 0.439 µM)	4 (≈ 7.02 µM)
O=C1CSc2ccc(N3C[C@H](CN4CCN(c5nc6c(cc5F)c(=O)c(C(=O)O)cn6C5CC5)CC4)OC3=O)cc2N1 [Example 16, 1-cyclopropyl-6-fluoro-4-oxo-7-{4-[(S)-2-oxo-3-(3-oxo-3,4-dihydro-2H-benzo[1,4]thiazin-6-yl)-oxazolidin-5-ylmethyl]-piperazin-1-yl}-1,4-dihydro-[1,8]naphthyridine-3-carboxylic acid]	≤ 0.016	0.125 (≈ 0.21 µM)
O=C1COc2ccc(N3C[C@@H](CNC4CCN(c5nc6c(cc5F)c(=O)c(C(=O)O)cn6C5CC5)CC4)OC3=O)nc2N1 [Example 17, 1-cyclopropyl-6-fluoro-4-oxo-7-(4-{[(R)-2-oxo-3-(3-oxo-3,4-dihydro-2H-pyrido[3,2-b][1,4]oxazin-6-yl)-oxazolidin-5-ylmethyl]-amino}-piperidin-1-yl)-1,4-dihydro-[1,8]naphthyridine-3-carboxylic acid]	≤ 0.016	≤ 0.016
O=C1COc2ccc(N3C[C@@H](CN4CCN(c5nc6c(cc5F)c(=O)c(C(=O)O)cn6C5CC5)CC4)OC3=O)nc2N1 [Example 18, 1-cyclopropyl-6-fluoro-4-oxo-7-{4-[(R)-2-oxo-3-(3-oxo-3,4-dihydro-2H-pyrido[3,2-b][1,4]oxazin-6-yl)-oxazolidin-5-ylmethyl]-piperazin-1-yl}-1,4-dihydro-[1,8]naphthyridine-3-carboxylic acid]	0.031 (≈ 0.0535 µM)	0.25 (≈ 0.431 µM)
O=C1COc2ccc(N3C[C@H](CN4CCN(c5nc6c(cc5F)c(=O)c(C(=O)O)cn6C5CC5)CC4)OC3=O)nc2N1 [Example 19, 1-cyclopropyl-6-fluoro-4-oxo-7-{4-[(S)-2-oxo-3-(3-oxo-3,4-dihydro-2H-pyrido[3,2-b][1,4]oxazin-6-yl)-oxazolidin-5-ylmethyl]-piperazin-1-yl}-1,4-dihydro-[1,8]naphthyridine-3-carboxylic acid]	≤ 0.016	0.063 (≈ 0.109 µM)

Reference: patent publication US9079922B2, “2-oxo-oxazolidin-3,5-diyl antibiotic derivatives” (priority 2011, dated 2015)
